From ChEMBL document CHEMBL1201862, “PubChem BioAssay data set” (2004)
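Assay format: 96-well plates, 48-hour exposure. Abbreviation: GI50, concentration required for 50% inhibition of growth.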 Active and inactive are the calls of the source. No stated cut-off is given here; in the data, active = GI50 up to about 1.1 µM and inactive = higher.

Legend:
Assay in all cases: NCI-60 cell line screen, 48 h
[1] = system: KM12
[2] = system: NCI/ADR-RES
[3] = system: PC-3
[4] = system: MCF7
[5] = system: IGROV-1
[6] = system: HCC 2998
[7] = system: RXF 393
[8] = system: OVCAR-8
[9] = system: HL-60
[10] = system: RPMI-8226
[11] = system: HCT-116
[12] = system: ACHN
[13] = system: OVCAR-4
[14] = system: BT-549
[15] = system: SK-MEL-28
[16] = system: T47D
[17] = system: UO-31
[18] = system: SR
[19] = system: CAKI-1
[20] = system: M14
[21] = system: SK-OV-3
[22] = system: MOLT-4
[23] = system: HCT-15
[24] = system: LOX IMVI
[25] = system: SN12C
[26] = system: Hs-578T
[27] = system: SW-620
[28] = system: SK-MEL-5
[29] = system: HT-29
[30] = system: 786-0
[31] = system: U-251
[32] = system: MDA-MB-435
[33] = system: A498
[34] = system: MDA-MB-231
[35] = system: COLO 205
[36] = system: OVCAR-5
[37] = system: MDA-N
[38] = system: Malme-3M
[39] = system: NCI-H460
[40] = system: NCI-H226
[41] = system: TK-10
[42] = system: OVCAR-3
[43] = system: SF-295
[44] = system: UACC-257
[45] = system: SF-268
[46] = system: CCRF-CEM
[47] = system: UACC-62
[48] = system: NCI-H522
[49] = system: SF-539
[50] = system: DU-145
[51] = system: SNB-75
[52] = system: A549
[53] = system: K562
[54] = system: NCI-H23
[55] = system: SK-MEL-2
[56] = system: HOP-62
[57] = system: SNB-19
[58] = system: EKVX
[59] = system: HOP-92

## Sc1nnc(C23CC4CC(CC(C4)C2)C3)n1-c1ccc(Cl)cc1
[1]
  GI50: 14.6 µM (inactive)
[2]
  GI50: 15.5 µM (inactive)
[3]
  GI50: 11.2 µM (inactive)
[4]
  GI50: 13.1 µM (inactive)
[5]
  GI50: 8.75 µM (inactive)
[6]
  GI50: 13.7 µM (inactive)
[7]
  GI50: 14.2 µM (inactive)
[8]
  GI50: 15.8 µM (inactive)
[9]
  GI50: 2.77 µM (inactive)
[10]
  GI50: 8.89 µM (inactive)
[11]
  GI50: 7.59 µM (inactive)
[12]
  GI50: 15.4 µM (inactive)
[13]
  GI50: 16.9 µM (inactive)
[14]
  GI50: 12.3 µM (inactive)
[15]
  GI50: 11.9 µM (inactive)
[16]
  GI50: 17.5 µM (inactive)
[17]
  GI50: 13.7 µM (inactive)
[18]
  GI50: 3.07 µM (inactive)
[19]
  GI50: 1.96 µM (inactive)
[20]
  GI50: 15.1 µM (inactive)
[21]
  GI50: 20 µM (inactive)
[22]
  GI50: 8.41 µM (inactive)
[23]
  GI50: 7.83 µM
[24]
  GI50: 4.54 µM (inactive)
[25]
  GI50: 14.1 µM (inactive)
[26]
  GI50: 22.1 µM (inactive)
[27]
  GI50: 16.1 µM (inactive)
[28]
  GI50: 3.3 µM (inactive)
[29]
  GI50: 14.6 µM (inactive)
[30]
  GI50: 14.6 µM (inactive)
[31]
  GI50: 9.18 µM (inactive)
[32]
  GI50: 12.9 µM (inactive)
[33]
  GI50: 19.1 µM (inactive)
[34]
  GI50: 21.4 µM (inactive)
[35]
  GI50: 13.2 µM (inactive)
[36]
  GI50: 35.4 µM (inactive)
[37]
  GI50: 15.6 µM (inactive)
[38]
  GI50: 13.5 µM (inactive)
[39]
  GI50: 5.69 µM (inactive)
[40]
  GI50: 23.3 µM (inactive)
[41]
  GI50: 22.3 µM (inactive)
[42]
  GI50: 10.8 µM (inactive)
[43]
  GI50: 11.1 µM (inactive)
[44]
  GI50: 22.5 µM (inactive)
[45]
  GI50: 11.6 µM (inactive)
[46]
  GI50: 4.36 µM (inactive)
[47]
  GI50: 8.26 µM (inactive)
[48]
  GI50: 20.2 µM (inactive)
[49]
  GI50: 22.7 µM (inactive)
[50]
  GI50: 20.1 µM (inactive)
[51]
  GI50: 22.3 µM (inactive)
[52]
  GI50: 8.34 µM (inactive)
[53]
  GI50: 9.59 µM (inactive)
[54]
  GI50: 27.5 µM (inactive)
[55]
  GI50: 10.9 µM (inactive)
[56]
  GI50: 13 µM (inactive)
[57]
  GI50: 27.2 µM (inactive)

## C=C(C)C1CC2(C)C(C)CC(OC(=O)/C(C)=C\C)CC2C(OC(=O)/C(C)=C\C)C1O (configuration not stated)
[1]
  GI50: 38.6 µM (inactive)
[2]
  GI50: > 100 µM (inactive)
[3]
  GI50: 46.6 µM (inactive)
[4]
  GI50: 41.2 µM (inactive)
[5]
  GI50: 66.2 µM (inactive)
[6]
  GI50: > 100 µM (inactive)
[8]
  GI50: > 100 µM (inactive)
[9]
  GI50: 21.4 µM (inactive)
[11]
  GI50: 56.1 µM (inactive)
[12]
  GI50: 32.9 µM (inactive)
[13]
  GI50: > 100 µM (inactive)
[14]
  GI50: 62.1 µM (inactive)
[15]
  GI50: > 100 µM (inactive)
[16]
  GI50: 43.2 µM (inactive)
[58]
  GI50: 67 µM (inactive)
[59]
  GI50: 51.2 µM (inactive)
[17]
  GI50: 39.8 µM (inactive)
[18]
  GI50: 19.8 µM (inactive)
[19]
  GI50: 80.7 µM (inactive)
[20]
  GI50: > 100 µM (inactive)
[21]
  GI50: > 100 µM (inactive)
[22]
  GI50: 25.1 µM (inactive)
[23]
  GI50: 42 µM
[24]
  GI50: 38.6 µM (inactive)
[25]
  GI50: 62.2 µM (inactive)
[26]
  GI50: 34.7 µM (inactive)
[27]
  GI50: 61 µM (inactive)
[28]
  GI50: 15.6 µM (inactive)
[29]
  GI50: 35.8 µM (inactive)
[30]
  GI50: > 100 µM (inactive)
[31]
  GI50: 75.5 µM (inactive)
[32]
  GI50: 55.3 µM (inactive)
[33]
  GI50: > 100 µM (inactive)
[34]
  GI50: > 100 µM (inactive)
[35]
  GI50: 22.1 µM (inactive)
[36]
  GI50: > 100 µM (inactive)
[37]
  GI50: 55.8 µM (inactive)
[38]
  GI50: > 100 µM (inactive)
[39]
  GI50: 45.1 µM (inactive)
[40]
  GI50: > 100 µM (inactive)
[41]
  GI50: > 100 µM (inactive)
[44]
  GI50: 89.1 µM (inactive)
[45]
  GI50: 66.4 µM (inactive)
[46]
  GI50: 20.8 µM (inactive)
[47]
  GI50: 84.5 µM (inactive)
[48]
  GI50: 32.7 µM (inactive)
[49]
  GI50: > 100 µM (inactive)
[50]
  GI50: 66.8 µM (inactive)
[51]
  GI50: 22 µM (inactive)
[52]
  GI50: 39.5 µM (inactive)
[53]
  GI50: > 10 µM (inactive)
[54]
  GI50: 61.9 µM (inactive)
[55]
  GI50: > 100 µM (inactive)
[57]
  GI50: 25.1 µM (inactive)

## COC(=O)/C=C/CC(=O)NS(C)(=O)=O
[1]
  GI50: > 10 µM (inactive)
[2]
  GI50: > 10 µM (inactive)
[3]
  GI50: > 10 µM (inactive)
[4]
  GI50: > 10 µM (inactive)
[5]
  GI50: > 10 µM (inactive)
[6]
  GI50: > 10 µM (inactive)
[7]
  GI50: > 10 µM (inactive)
[8]
  GI50: > 10 µM (inactive)
[9]
  GI50: > 10 µM (inactive)
[10]
  GI50: > 10 µM (inactive)
[11]
  GI50: > 10 µM (inactive)
[12]
  GI50: > 10 µM (inactive)
[13]
  GI50: > 10 µM (inactive)
[14]
  GI50: > 10 µM (inactive)
[15]
  GI50: > 10 µM (inactive)
[16]
  GI50: > 10 µM (inactive)
[58]
  GI50: > 10 µM (inactive)
[17]
  GI50: > 10 µM (inactive)
[18]
  GI50: > 10 µM (inactive)
[19]
  GI50: > 10 µM (inactive)
[20]
  GI50: > 10 µM (inactive)
[21]
  GI50: > 10 µM (inactive)
[22]
  GI50: > 10 µM (inactive)
[23]
  GI50: > 10 µM
[24]
  GI50: > 10 µM (inactive)
[25]
  GI50: > 10 µM (inactive)
[26]
  GI50: > 10 µM (inactive)
[27]
  GI50: > 10 µM (inactive)
[28]
  GI50: > 10 µM (inactive)
[29]
  GI50: > 10 µM (inactive)
[30]
  GI50: > 10 µM (inactive)
[31]
  GI50: > 10 µM (inactive)
[32]
  GI50: > 10 µM (inactive)
[33]
  GI50: > 10 µM (inactive)
[34]
  GI50: > 10 µM (inactive)
[35]
  GI50: > 10 µM (inactive)
[36]
  GI50: > 10 µM (inactive)
[37]
  GI50: > 10 µM (inactive)
[38]
  GI50: > 10 µM (inactive)
[39]
  GI50: > 10 µM (inactive)
[40]
  GI50: > 10 µM (inactive)
[41]
  GI50: > 10 µM (inactive)
[42]
  GI50: > 10 µM (inactive)
[43]
  GI50: > 10 µM (inactive)
[44]
  GI50: > 10 µM (inactive)
[45]
  GI50: > 10 µM (inactive)
[46]
  GI50: > 10 µM (inactive)
[47]
  GI50: > 10 µM (inactive)
[48]
  GI50: > 10 µM (inactive)
[49]
  GI50: > 10 µM (inactive)
[50]
  GI50: > 10 µM (inactive)
[52]
  GI50: > 10 µM (inactive)
[54]
  GI50: > 10 µM (inactive)
[55]
  GI50: > 10 µM (inactive)
[56]
  GI50: > 10 µM (inactive)
[57]
  GI50: > 10 µM (inactive)
